# Measurements reported in patent US10952940B2, “Reagents and methods for mineralization of tooth enamel” (UNIVERSITY OF WASHINGTON, priority 2016, dated 2021).
# “Also recorded” adds a separate entry of the source.
# How the values were obtained:
# Parameters in all cases: species or system human
# [1] = Solution mineralization approach, color measurements with Chroma Meter; settings: peptide 10 min, calcium/phosphate ions 2 hours, 37° C.; 25 rounds
# Text: The root site of an extracted human tooth was removed and the crown portion of the tooth was sectioned vertically into half. A thin layer of enamel was removed from one half of the sectioned tooth such that the dentin layer is exposed without completely removing the enamel on the tooth. This allowed imaging of the enamel surfaces after the mineralization experiment without the problem of surface reflection, and provides a more parallel surface from which to compare the whiteness results. The sectioned tooth was fixed onto a glass slide with epoxy. Initial color measurements of each of the four sides of the sectioned tooth were obtained using a Minolta Chroma Meter CR-200 (Konica Minolta, Tokyo, Japan), according to manufacturer instructions, using a white background and a black background. The sectioned tooth was incubated in a mineralization polypeptide solution for 10 minutes at 37° C. and then in a solution with calcium ions and phosphate ions for 2 hours at 37° C. Color measurements of each of the four sides of the sample were taken as described initially. The sectioned was rinsed with deionized water and the remineralization process (incubation in polypeptide solution, incubation in solution of ion sources, and rinsing with deionized water) was repeated for a total of 25 rounds. The mineralization polypeptide was SYENSHSQAINVDRT (shADP5; SEQ ID NO:16).
# [2] = Solution mineralization approach on tetracycline-stained teeth, Mean Pixel Intensity; settings: repeated rounds of remineralization
# Text: Human teeth, donated by the University of Washington School of Dentistry (Seattle, Wash., USA), were selected for their clean, smooth surfaces. The teeth were sterilized in bleach, cut on a diamond blade to remove the root, and halved. A thin layer of the enamel surface was then cut on one of the halves parallel to the previous cut, such that the dentin layer could be seen without completely removing the enamel on the tooth. This allowed imaging of the enamel surfaces after the mineralization experiment without the problem of surface reflection encountered in previous experiments, in addition to a more parallel surface from which to compare the brightness or whiteness results. The cut enamel side of the tooth sample was then sonicated in DI water and polished on diamond slurry smooth out the surface for imaging. The sample was then cut into quarters, with the lower half selected for a tetracycline experiment because of the even distribution of dentin coloring in the lower quarters of the tooth sample. The samples were then stained in 10 mg/mL tetracycline solution for five days.
# During mineralization, using a 96-well plate, one of the stained halves was stored in […] Tris (24 mM) as a negative control, and the experimental sample was incubated in 150 μL shADP5 (0.8 mM) at 37° C. for 10 minutes. […]
# [3] = Structural characterization of remineralized layer by TEM; settings: TEM of fragments shaved off the surface; listed as group 6
# Description: After remineralization steps were completed, TEM samples were collected by carefully shaving off the top most surface of the remineralized layer from the artificially created white spot lesion using a clean razor blade. The shaved particles were suspended in 100% ethanol, and the suspension was drop-casted onto a carbon coated TEM grid, which was then vacuum dried before TEM characterization. TEM bright field imaging (BF) imaging and selected areas diffraction were carried out using an FEI Tecnai (FEI, Hillboro, Oreg., USA) operating at 200 keV.
# Structural and phase characterization of the samples from all groups were undertaken by transmission electron microscopy imaging and diffraction analysis. This is because x-ray diffraction characterization requires large enough volume with 10s of lam mass thickness and larger spatial sampling, 100s of μms or larger areas. Since the mineralized layer is thin, a few μms in all other group samples to 10 μm or so in group 6 samples using the peptide, TEM has been used to provide the most critical data, diffraction and phase identification. The TEM samples were prepared by gently shaving fragments off the surface of tooth specimens onto carbon-coated TEM grid to prepare and ensure electron transparent sections. All of the TEM data is included in FIG. 13 below for completeness (while only 1st, 4th and 6th columns of data were presented in FIG. 11).
sequence,measurement,setting,value
"SYENSHSQAINVDRT [shADP5, 15-amino acid long amelogenin-derived peptide, shortened human ADP5]",whiteness of the tooth enamel,[1],improved with each round of remineralization
same,whiteness of the stained tooth,[2],improves with repeated rounds of remineralization
same,structure of mineral found by TEM imaging and diffraction,[3],large particles (in the shown projection) of HAp; also recorded: HAp crystallites with aligned organization
